Measured values: patent publication US6423829B1 (St. Jude Children's Research Hosital, priority 1997, dated 2002)
pIC50: −log10 of the molar value. Structures can show the parent of a compound that is named as a salt.

Assays:
[1] = target: T1, hENT2 (ei transporter) in CEM/N1-7 cells (Homo sapiens, UniProt Q14542); assay: 3H-uridine uptake in CEM/N1-7 cells in the presence of nucleoside transport inhibitors; format: cell-based; settings: for effect on uridine transport in CEM/N1-7 cells: FIG. 1B
T1 construct: expressed in transfected cells; host or cells: CEM/C19 (nucleoside-transport-deficient, EBNA-1-expressing subline of human T-cell leukemia CEM) carrying plasmid pDR2/N1-7
T1 sequence (Q14542 1-456): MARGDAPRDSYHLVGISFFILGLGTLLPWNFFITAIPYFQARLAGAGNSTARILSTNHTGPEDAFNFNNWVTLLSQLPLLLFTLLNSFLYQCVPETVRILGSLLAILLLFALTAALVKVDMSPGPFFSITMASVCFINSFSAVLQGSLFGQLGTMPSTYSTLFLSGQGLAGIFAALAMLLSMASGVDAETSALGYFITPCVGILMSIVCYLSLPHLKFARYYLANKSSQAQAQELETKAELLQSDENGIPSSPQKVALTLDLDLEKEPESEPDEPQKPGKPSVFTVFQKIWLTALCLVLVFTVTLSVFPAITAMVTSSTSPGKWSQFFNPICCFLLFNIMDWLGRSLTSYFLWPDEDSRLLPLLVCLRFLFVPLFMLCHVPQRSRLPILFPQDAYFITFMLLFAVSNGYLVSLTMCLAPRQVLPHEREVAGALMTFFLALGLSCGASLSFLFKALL
Experimental: The values shown are means of duplicate assays and have been corrected for extracellular water space.
FIGS. 1B-1C depict the uptake of 10 μM ^3H-uridine determined at 22° C. in Na^+buffer using a 7.5 second uptake interval in the presence of nucleoside transport inhibitors. The uptake interval was initiated by simultaneous addition of the label and inhibitory nucleobase, nucleoside or nucleotide. […] This value was subtracted from the total uridine uptake values.
Removal of sodium from the buffer had no effect on transport in CEM/N1-7 indicating the presence of an equilibrative type transporter. […] (FIG. 1B). As expected from the permeant selectivity observed for ei activity in several cell lines [Plagemann et al., Biochim. Biophys. […] This was recently confirmed by Jarvis and colleagues [Osses et al., Biochem. J., 317:843-848 (1996)] by direct measurements of hypoxanthine in human vascular endothelial cells. […] All these features are consistent with those of an ei transporter, ie., an iENTP.

[2] = test system: concentrative nucleoside transporters (cif, cit, cib); settings: at concentrations up to 10 μM; cited from earlier work
[3] = target: T2, human ei transporter in HeLa cells (Homo sapiens, UniProt Q14542); settings: read-out: IC50 for inhibition of uridine transport via ei; cited from earlier work
T2 construct: the human ei transporter in HeLa cells where the IC50 values; host or cells: HeLa cells (endogenous)
T2 sequence (Q14542 1-456): T1 sequence (Q14542 1-456)

[4] = test system: CEM/C19 cells; assay: DUP-785 toxicity and uridine rescue in CEM/C19 cells; format: cell-based, human

## O=c1[nH]cnc2nc[nH]c12 [hypoxanthine]
[1]; competing nucleobase, nucleoside or nucleotide added with label, FIG. 1C
  effect on uridine influx in CEM/N1-7 cells: inhibited

## OCCN(CCO)c1nc(N2CCCCC2)c2nc(N(CCO)CCO)nc(N3CCCCC3)c2n1 [DIP, bis(diethanolamino)-4,8-dipiperidinopyrimido-[5,4-d]-2,6-pyrimidine]
[1]; 10 μM inhibitor
  effect on uridine transport in CEM/N1-7 cells: completely blocked
[2]
  sensitivity of the concentrative nucleoside transporters: insensitive

## O=[N+]([O-])c1ccc(CSc2ncnc3c2ncn3C2OC(CO)C(O)C2O)cc1 [NBMPR, 6-[(4-nitrobenzyl)thio-9-β-D-ribofuranosylpurine]]
[1]; 0.1 μM inhibitor, 10 μM 3H-uridine, 22° C.
  effect on uridine transport in CEM/N1-7 cells: had no effect
[1]; higher concentrations of inhibitor
  effect on uridine transport in CEM/N1-7 cells: Partial inhibition
[2]
  sensitivity of the concentrative nucleoside transporters: insensitive
[3]
  pIC50: 5.22

## Cc1c(-c2ccc(-c3ccccc3F)cc2)nc2ccc(F)cc2c1C(=O)O [DUP-785, 6-fluoro-2(2′--fluoro-1, 1′-biphenyl-4-yl)-3-methyl-4-quinoline carboxylic acid sodium salt]
[4]
  sensitivity of cells to the de novo uridylate synthesis inhibitor: sensitive
